Tests used:
[1] = system: acute HIV infection with HeLa P4-2 cells; test: Single cycle infectivity assay with HeLa P4-2 cells (vertical assay); type: cell-based; conditions: Human immunodeficiency virus 1, HeLaP4-2
Protocol: An assay for measuring the inhibition of acute HIV infection with HeLa P4-2 cells in a single cycle infectivity assay (alternatively referred to herein as the “vertical assay”) was conducted in accordance with Joyce, J. G. et al., J. Biol. Chem. 2002, 277: 45811, Hazuda, D. J. et al., Science, 2000, 287, 646, and Kimpton, J. et al, J. Virol. 1992, 66: 2232.

[2] = system: acute HIV infection of T-lymphoid cells; test: Inhibition of acute HIV infection of T-lymphoid cells (spread assay); type: cell-based; conditions: Human immunodeficiency virus 1
Protocol: An assay for the inhibition of acute HIV infection of T-lymphoid cells (alternatively referred to herein as the “spread assay”) was conducted in accordance with Vacca, J. P. et al., Proc. Natl. Acad. Sci. USA 1994, 91: 4096.

[3] = molecular target: T1, recombinant integrase (HIV integrase) (Human immunodeficiency virus type 1 group M subtype B, UniProt P04585); test: HIV integrase assay: strand transfer catalyzed by recombinant integrase; type: biochemical; conditions: assay per WO 02/30930, read-out: IC50, inhibition of strand transfer activity of integrase
T1 construct: Strand Transfer Catalyzed by Recombinant Integrase
Protocol: Assays for the strand transfer activity of integrase were conducted in accordance with WO 02/30930 for recombinant integrase.
Further description on conducting the assay using preassembled complexes is found in Wolfe, A. L. et al., J. Virol. 1996, 70: 1424-1432, Hazuda et al., J. Virol. 1997, 71: 7005-7011; Hazuda et al., Drug Design and Discovery 1997, 15: 17-24; and Hazuda et al., Science 2000, 287: 646-650.

| Structure (SMILES) | IC50 [1] [µM] | IC95 [2] [µM] | IC50 [3] [µM] |
| --- | --- | --- | --- |
| COC(=O)c1nn2c(c1O)C(=O)N(Cc1ccc(F)cc1)CC2 [Example 1, Methyl 5-(4-fluorobenzyl)-3-hydroxy-4-oxo-4,5,6,7-tetrahydropyrazolo[1,5-a]pyrazine-2-carboxylate] | > 100 | > 10 | – |
| CNC(=O)c1nn2c(c1O)C(=O)N(Cc1ccc(F)cc1)C(C)C2 (stereo not shown) [Example 6, 5-(4-Fluorobenzyl)-3-hydroxy-N-methyl-6-methyl-4-oxo-4,5,6,7-tetrahydropyrazolo[1,5-a]pyrazine-2-carboxamide] | < 40 | > 10 | – |
| CN1CCn2nc(C(=O)N3CCc4ccccc4C3)c(O)c2C1=O [Example 14, 3-Hydroxy-5-methyl-4-oxo-2-[(1,2,3,4-tetrahydro-isoquinolin-2-yl)carbonyl]-4,5,6,7-tetrahydropyrazolo[1,5-a]pyrazine] | – | > 10 | > 10 |
| CN1CCn2nc(C(=O)N3CCCC3c3ccccc3)c(O)c2C1=O (stereo not shown) [Example 16, 3-Hydroxy-5-methyl-4-oxo-2-[(2-phenylpyrrolidin-1-yl)carbonyl]-4,5,6,7-tetrahydropyrazolo[1,5-a]pyrazine] | – | > 10 | > 10 |
| CN(Cc1ccc2nccnc2c1)C(=O)c1nn2c(c1O)C(=O)N(C)CC2 [Example 17, 3-Hydroxy-5-methyl-4-oxo-2-{[quinoxalin-6-ylmethyl(methyl)amino]carbonyl}-4,5,6,7-tetrahydropyrazolo[1,5-a]pyrazine] | < 40 | > 10 | – |
| CN1CCn2nc(C(=O)N(CCO)Cc3ccccc3)c(O)c2C1=O [Example 18, 2-[Benzyl(2-hydroxyethyl)aminocarbonyl]-3-hydroxy-5-methyl-4-oxo-4,5,6,7-tetrahydropyrazolo[1,5-a]pyrazine] | > 100 | > 10 | – |
| CN(C)CCN(Cc1ccccc1)C(=O)c1nn2c(c1O)C(=O)N(C)CC2 [Example 19, 2-{Benzyl[2-(dimethylamino)ethyl]aminocarbonyl}-3-hydroxy-5-methyl-4-oxo-4,5,6,7-tetrahydropyrazolo[1,5-a]pyrazine] | > 100 | > 10 | > 10 |
| O=C(NC1CCNCC1)c1nn2c(c1O)C(=O)N(Cc1ccc(F)cc1)CC2 [Example 25, 5-(4-Fluorobenzyl)-3-hydroxy-4-oxo-N-(4-piperidinyl)-4,5,6,7-tetrahydropyrazolo[1,5-a]pyrazine-2-carboxamide] | < 40 | > 10 | – |
| O=C(c1nn2c(c1O)C(=O)N(Cc1ccc(F)cc1)CC2)N1CCOCC1 [Example 28, 5-(4-Fluorobenzyl)-3-hydroxy-2-(morpholin-4-ylcarbonyl)-4-oxo-4,5,6,7-tetrahydropyrazolo[1,5-a]pyrazine] | < 40 | > 10 | – |
| CNC(=O)c1cc(F)ccc1CNC(=O)c1nn2c(c1O)C(=O)N(C)CC2c1ccccn1 (stereo not shown) [Example 47, N-{4-Fluoro-2-[(methylamino)carbonyl]benzyl}-3-hydroxy-5-methyl-4-oxo-7-pyridin-2-yl-4,5,6,7-tetrahydropyrazolo[1,5-a]pyrazine-2-carboxamide] | – | ≤ 10 | – |
| CC(C)C1CN(C)C(=O)c2c(O)c(C(=O)NCc3ccc(F)cc3)nn21 (stereo not shown) [Example 48, N-(4-Fluorobenzyl)-3-hydroxy-7-isopropyl-5-methyl-4-oxo-4,5,6,7-tetrahydropyrazolo[1,5-a]pyrazine-2-carboxamide] | – | ≤ 10 | – |
| CNC(=O)c1cc(F)ccc1CNC(=O)c1nn2c(c1O)C(=O)N(C)CC2C(C)C (stereo not shown) [Example 49, N-{4-Fluoro-2-[(methylamino)carbonyl]benzyl}-3-hydroxy-7-isopropyl-5-methyl-4-oxo-4,5,6,7-tetrahydropyrazolo[1,5-a]pyrazine-2-carboxamide] | – | ≤ 10 | – |

— patent publication US7476666B2, “HIV integrase inhibitors” (Merck & Co., Inc., priority 2004, dated 2009)
